{
  "source": "patent US8258128B2",
  "about": "“Organic compounds” (Novartis AG, priority 2006, dated 2012)",
  "key": {"[1]": {"test_system": "collagen-induced arthritis in the rats", "assay": "Collagen-induced arthritis in the rats, histological evaluation of hind paws", "format": "in vivo, rat", "details": "day 11", "description": "Method: For this study, COMPOUND A and COX-inhibitor Diclofenac are dissolved in a solvent containing 5% of glucose (5 ml/kg). Compounds are given orally once a day. Female rats of the WAGxBUF/F1 crossbred strain (weight 130 g) are used. The animals are divided into several groups, one placebo group (N=8), and four treatment groups (each N=7-8). Treatment starts on peak of disease (day 0) and continues for 11 days. Swelling is assessed at regular time intervals by measuring the external thickness of the hind paws in the region of the metatarsals using a micro-caliper. Tissue samples for histological evaluation are obtained at the end of the in vivo experiment, 5 h after the last oral dose of COMPOUND A or placebo on day 11.\nHind paws from control arthritic rats (vehicle-treated), taken post-mortem at the end of day 11 of the treatment, obtained relatively high histological scorings compared to histological scores of animals treated with COMPOUND A (0.3, 1, 3 and 9 mg/kg) or Diclofenac (1 mg/kg)."}, "[2]": {"test_system": "established Adjuvant-induced arthritis in rats", "assay": "Established adjuvant-induced arthritis in rats (therapeutic dosing schedule)", "format": "in vivo, rat", "details": "for ED50: Rattus norvegicus, read-out: Estimated ED50", "description": "(§1) Adjuvant arthritis can be treated using two different dosing schedules; either starting at the time of immunization with adjuvant (prophylactic dosing) or from day 15 when the arthritic response is already established (therapeutic dosing). It is more difficult to inhibit adjuvant arthritis with the therapeutic dosing schedule as compared to the prophylactic schedule. Both versions of adjuvant arthritis are, however, extremely sensitive to the effects of both non-selective COX inhibitors and COX 2 selective inhibitors where 70-90% inhibition of swelling can be achieved at appropriate doses. These models may be predictive for some of the processes thought to be relevant in rheumatoid arthritis.\n(§2) Method: Female Wistar rats weighing 150-170 g (housed in standard conditions, 5 animals per cage, with food and water ad libitum) are injected i.d. at the base of the tail with 0.1 ml of mineral oil containing 0.6 mg of lyophilized heat-killed Mycobacterium tuberculosis. The rats are treated orally with COMPOUND A or placebo formulation from day 15 to day 22 (therapeutic dosing schedule) or with COMPOUND A from day 0 to day 14 after immunization (prophylactic dosing schedule). At the end of the experiment, the swelling of the tarsal joints is measured by means of a micro-caliper. For the comparison study to Diclofenac both compounds are given from day 15 to day 29 with readouts at day 22 and 29. Percentage inhibition of paw swelling is calculated by reference to placebo treated arthritic animals (0% inhibition) and placebo treated normal animals (100% inhibition). Five animals are used per group. Data are analyzed using Kruskal-Wallis non-parametric ANOVA followed by Dunn's Multiple Comparison test."}, "[3]": {"test_system": "rat carrageenan edema model", "assay": "Carrageenan edema in the rat (paw swelling)", "format": "in vivo", "description": "Carrageenan edema in the rat: The effects of COMPOUND A are investigated in the carrageenan edema model. In this model an acute paw swelling is induced by the sub-plantar injection of carrageenan. The paw swelling has a duration of approximately 8 hours and is completely resolved at 24 hours. The model is used to assess anti-inflammatory activities of new therapeutics and is also sensitive to drugs such as COX-inhibitors like Diclofenac, which is used as a positive control compound in the model.\nMethod: Male OFA rats (5 animals/group) are treated orally with COMPOUND A (1, 3 and 9 mg/kg), Diclofenac (3 mg/kg) or vehicle (placebo formulation). One hour later (0 hours) the rats receive a 100 μl intra-plantar injection of a 1% w/v carrageenan solution in 0.9% saline in the hind paw and the diameter of the paw is measured by means of a micro-caliper. The paw diameter measurements are repeated 3 and 5 hours after injection of the carrageenan. Percentage inhibition of paw swelling at 3 and 5 hours is calculated by reference to vehicle treated animals (0% inhibition).\nEdema is induced by a sub-plantar injection of carrageenan in the paw of the rat. Paw diameters are measured at the time of carrageenan injection (0 hours) and at 3 and 5 hours. Compounds are administered 1 hour before the carrageenan injection. COMPOUND A was dosed at 1, 3 and 9 mg/kg p.o. and Diclofenac at 3 mg/kg p.o."}, "[4]": {"test_system": "developing Adjuvant-induced arthritis in rats", "assay": "Developing adjuvant-induced arthritis in rats (prophylactic dosing schedule)", "format": "in vivo, rat", "details": "for % inhibition: day 0 to day 14; for Swelling (mm) ± SEM: day 0 to day 14, readout day 14", "description": "as §1, §2"}, "[5]": {"assay": "Tolerability relative to effective dose in chronic disease models (general statement)", "format": "in vivo", "details": "doses more than 10 times higher than the effective dose in chronic disease models"}, "[6]": {"details": "0.3 mg/kg/day p.o., 7 day treatment (Table 7)"}, "[7]": {"details": "1 mg/kg/day p.o., 7 day treatment (Table 7)"}, "[8]": {"details": "1.25 mg/kg/day p.o., 7 days treatment, readout day 22 (Table 8)"}, "[9]": {"details": "1.25 mg/kg/day p.o., 14 days treatment, readout day 29 (Table 8)"}, "[10]": {"details": "2.5 mg/kg/day p.o., 7 days treatment, readout day 22 (Table 8)"}, "[11]": {"details": "2.5 mg/kg/day p.o., 14 days treatment, readout day 29 (Table 8)"}, "[12]": {"details": "3 mg/kg/day p.o., 7 day treatment (Table 7)"}, "[13]": {"details": "5 mg/kg/day p.o., 7 days treatment, readout day 22 (Table 8)"}},
  "note": "Several values for one entry are separate records, joined by “and”; a condition that tells them apart may be missing. Equal values may be shown once. Read-outs that look alike come from different tables or passages of the source. Marks after values point to notes of the source that are not given here.",
  "data": [
    {"smiles": "COC1=Nc2cc(Cl)ccc2/C(=C/C(=O)O)c2sc(Cl)cc21", "note": "[COMPOUND A, [2,7-Dichloro-10-methoxy-3-thia-9-aza-benzo[f]azulen-(4Z)-ylidene]-acetic acid]", "values": [
      {"measurement": "Bone apposition, effect on histological score", "setting": "[1]; 0.3 mg/kg/day p.o.", "result": "+4%"},
      {"measurement": "Cartilage damage, effect on histological score", "setting": "[1]; 0.3 mg/kg/day p.o.", "result": "−6", "unit": "%"},
      {"measurement": "Infiltration of cells, effect on histological score", "setting": "[1]; 0.3 mg/kg/day p.o.", "result": "+8%"},
      {"measurement": "Loss of PG, effect on histological score", "setting": "[1]; 0.3 mg/kg/day p.o.", "result": "+1%"},
      {"measurement": "Bone apposition, effect on histological score", "setting": "[1]; 1 mg/kg/day p.o.", "result": "−28", "unit": "%"},
      {"measurement": "Cartilage damage, effect on histological score", "setting": "[1]; 1 mg/kg/day p.o.", "result": "−24", "unit": "%"},
      {"measurement": "Infiltration of cells, effect on histological score", "setting": "[1]; 1 mg/kg/day p.o.", "result": "−7", "unit": "%"},
      {"measurement": "Loss of PG, effect on histological score", "setting": "[1]; 1 mg/kg/day p.o.", "result": "−13", "unit": "%"},
      {"measurement": "Bone apposition, effect on histological score", "setting": "[1]; 3 mg/kg/day p.o.", "result": "−35", "unit": "% *"},
      {"measurement": "Cartilage damage, effect on histological score", "setting": "[1]; 3 mg/kg/day p.o.", "result": "−40", "unit": "% *"},
      {"measurement": "Infiltration of cells, effect on histological score", "setting": "[1]; 3 mg/kg/day p.o.", "result": "−25", "unit": "%"},
      {"measurement": "Loss of PG, effect on histological score", "setting": "[1]; 3 mg/kg/day p.o.", "result": "−28", "unit": "% *"},
      {"measurement": "Bone apposition, effect on histological score", "setting": "[1]; 9 mg/kg/day p.o.", "result": "−51", "unit": "% **"},
      {"measurement": "Cartilage damage, effect on histological score", "setting": "[1]; 9 mg/kg/day p.o.", "result": "−56", "unit": "% ***"},
      {"measurement": "Infiltration of cells, effect on histological score", "setting": "[1]; 9 mg/kg/day p.o.", "result": "−34", "unit": "% **"},
      {"measurement": "Loss of PG, effect on histological score", "setting": "[1]; 9 mg/kg/day p.o.", "result": "−40", "unit": "% *"},
      {"measurement": "% inhibition", "setting": "[2]; [6]", "result": "15.8 * %"},
      {"measurement": "Swelling (mm) ± S.D.", "setting": "[2]; [6]", "result": "6.79 ± 0.9", "unit": "mm"},
      {"measurement": "% inhibition", "setting": "[2]; [7]", "result": "39.0 * %"},
      {"measurement": "Swelling (mm) ± S.D.", "setting": "[2]; [7]", "result": "4.92 ± 0.63", "unit": "mm"},
      {"measurement": "% inhibition", "setting": "[2]; [8]", "result": "51.0 * %"},
      {"measurement": "Swelling (mm) ± S.D.", "setting": "[2]; [8]", "result": "4.22 ± 0.57", "unit": "mm"},
      {"measurement": "% inhibition", "setting": "[2]; [9]", "result": "60.3 * %"},
      {"measurement": "Swelling (mm) ± S.D.", "setting": "[2]; [9]", "result": "3.06 ± 0.63", "unit": "mm"},
      {"measurement": "% inhibition", "setting": "[2]; [10]", "result": "60.5 * %"},
      {"measurement": "Swelling (mm) ± S.D.", "setting": "[2]; [10]", "result": "3.40 ± 0.92", "unit": "mm"},
      {"measurement": "% inhibition", "setting": "[2]; [11]", "result": "62.0 * %"},
      {"measurement": "Swelling (mm) ± S.D.", "setting": "[2]; [11]", "result": "2.93 ± 0.80", "unit": "mm"},
      {"measurement": "% inhibition", "setting": "[2]; [12]", "result": "45.0 * %"},
      {"measurement": "Swelling (mm) ± S.D.", "setting": "[2]; [12]", "result": "4.41 ± 0.59", "unit": "mm"},
      {"measurement": "% inhibition", "setting": "[2]; [13]", "result": "65.0 * %"},
      {"measurement": "Swelling (mm) ± S.D.", "setting": "[2]; [13]", "result": "2.94 ± 1.28", "unit": "mm"},
      {"measurement": "Swelling (mm) ± S.D.", "setting": "[2]; 5 mg/kg/day p.o., 14 days treatment, readout day 29 (Table 8)", "result": "2.23 ± 0.66", "unit": "mm"},
      {"measurement": "Swelling (mm) ± S.D.", "setting": "[2]; 9 mg/kg/day p.o., 7 day treatment (Table 7)", "result": "2.84 ± 0.73", "unit": "mm"},
      {"measurement": "ED50", "setting": "[2]; 336 h, 2 week treatment schedule", "result": "< 1.25", "unit": "mg/kg"},
      {"measurement": "ED50", "setting": "[2]; po, 168 h, p.o., one week treatment schedule", "result": "≤ 1.25", "unit": "mg/kg"},
      {"measurement": "% inhibition of paw swelling", "setting": "[3]; 1 mg/kg p.o., 3 hrs after carrageenan", "result": 58, "unit": "%"},
      {"measurement": "% inhibition of paw swelling", "setting": "[3]; 1 mg/kg p.o., 5 hrs after carrageenan", "result": 65, "unit": "%"},
      {"measurement": "% inhibition of paw swelling", "setting": "[3]; 3 mg/kg p.o., 3 hrs after carrageenan", "result": 67, "unit": "%"},
      {"measurement": "% inhibition of paw swelling", "setting": "[3]; 3 mg/kg p.o., 5 hrs after carrageenan", "result": 48, "unit": "%"},
      {"measurement": "% inhibition of paw swelling", "setting": "[3]; 9 mg/kg p.o., 3 hrs after carrageenan", "result": 88, "unit": "%"},
      {"measurement": "% inhibition of paw swelling", "setting": "[3]; 9 mg/kg p.o., 5 hrs after carrageenan", "result": 74, "unit": "%"},
      {"measurement": "inhibition in the carrageenan edema model (in words)", "setting": "[3]; after 3 and 5 hours, dose of 1 to 9 mg/kg", "result": "dose-related inhibition"},
      {"measurement": "% inhibition", "setting": "[4]; 0.3 mg/kg p.o.", "result": "14.3 * %"},
      {"measurement": "Swelling (mm) ± SEM", "setting": "[4]; 0.3 mg/kg p.o.", "result": "10.9 ± 0.6", "unit": "mm"},
      {"measurement": "% inhibition", "setting": "[4]; 1 mg/kg p.o.", "result": "57.1 * %"},
      {"measurement": "Swelling (mm) ± SEM", "setting": "[4]; 1 mg/kg p.o.", "result": "9.1 ± 0.5", "unit": "mm"},
      {"measurement": "% inhibition", "setting": "[4]; 3 mg/kg p.o.", "result": "88% and 88.1 ** %"},
      {"measurement": "Swelling (mm) ± SEM", "setting": "[4]; 3 mg/kg p.o.", "result": "7.8 ± 0.2", "unit": "mm"},
      {"measurement": "ED50", "setting": "[4]; Rattus norvegicus, po, prophylactic dosing schedule, read-out: calculated ED50", "result": 0.8, "unit": "mg/kg"},
      {"measurement": "tolerability", "setting": "[5]", "result": "very well tolerated"}
    ]}
  ]
}
